Test results as given in patent US9682960B2 (priority 2013, dated 2017).
Like-named read-outs stand apart in the source and are kept apart here.

Experiments:
[1] = biological target: Human Androgen Receptor (Homo sapiens (Human), UniProt P10275); test: Androgen receptor assay: [3H]R1881 displacement, cytosol of HEK-293 cells transfected with hAR (hydroxylapatite assay); type: binding; details: relative binding affinity, R1881 = 100
[2] = system: Shionogi mouse mammary carcinoma cells; test: In vitro androgenic/antiandrogenic activity: proliferation of Shionogi cells with or without DHT; type: cell-based; details: Mus musculus
[3] = system: castrated (CX) immature male rats; test: Systemic androgenic (agonistic) activity in orchidectomized (CX) immature male rats; type: in vivo, rat; details: 0.1 mg/rat/po, 7 days; for CX Agonistic activity % Stimulation Bulbo: bulbocavernosus muscles weight; for CX Agonistic activity % Stimulation SV: seminal vesicles weight; for CX Agonistic activity % Stimulation Prostate: ventral prostate weight
Method: Immature male rats (Crl:CD(SD)Br) 22 to 24-day old weighting 60-80 g at start of treatment were obtained from Charles-River, Inc. (St-Constant, Quebec, Canada) and housed up to 5 per cage in plastic bins in a temperature (23±1° C.)- and light (12 h light/day, lights on at 7 h15)-controlled environment. The rats were fed rodent chow and tap water ad libitum. […] The day following their arrival, the designed animals were orchidectomized (CX) under Isoflurane anesthesia (Study Day 1) via the scrotal route and were then randomly assigned to groups of 3 to 5 animals. At the time of orchidectomy, one silastic implant of dihydrotestosterone (DHT; 1 cm length of pure DHT in silastic tubing having inner and outer diameter of 0.078 and 0.125 inches, respectively), was inserted subcutaneously in the dorsal area of animals assigned to the evaluation of antiandrogenic activity. In the case of intact animal experiments, the orchidectomy and the silastic implant installation are omitted.
Tested compounds were administered orally once daily for 7 days from Study Day 2 to Study Day 8 at doses generally ranging from 0.1 and 0.5 mg/animal. Compounds were either solubilized in dimethylsulfoxide (DMSO, 10% final concentration) and were administered as a solution/suspension in 0.9% NaCl-1% gelatin or were administered as suspensions in 0.4% aqueous methylcellulose. Animals of the control groups received the corresponding vehicle alone during the 7-day period. Some animals were treated with the antiandrogen Flutamide or Casodex as reference. The animals under isoflurane anesthesia were killed by cervical dislocation on day 9 of the study, approximately 24 h after the last dosing. The ventral prostate, seminal vesicles and bulbocavernosus muscles were rapidly dissected and weighed.
For calculations with intact animals, control DHT is replaced by control intact and the % stimulation is subtracted by 100%. W is the weight of the prostate, seminal vesicles or bulbocavernosus muscles. Discussion

[4] = read-out: Shionogi Antiandrogenic Activity IC50, DHT (0.3 nM)-stimulated cell number
[5] = DHT (0.3 nM)-stimulated cell number, read-out: Shionogi Antiandrogenic Activity IC50

Human Androgen Receptor, sequence (P10275 whole entry): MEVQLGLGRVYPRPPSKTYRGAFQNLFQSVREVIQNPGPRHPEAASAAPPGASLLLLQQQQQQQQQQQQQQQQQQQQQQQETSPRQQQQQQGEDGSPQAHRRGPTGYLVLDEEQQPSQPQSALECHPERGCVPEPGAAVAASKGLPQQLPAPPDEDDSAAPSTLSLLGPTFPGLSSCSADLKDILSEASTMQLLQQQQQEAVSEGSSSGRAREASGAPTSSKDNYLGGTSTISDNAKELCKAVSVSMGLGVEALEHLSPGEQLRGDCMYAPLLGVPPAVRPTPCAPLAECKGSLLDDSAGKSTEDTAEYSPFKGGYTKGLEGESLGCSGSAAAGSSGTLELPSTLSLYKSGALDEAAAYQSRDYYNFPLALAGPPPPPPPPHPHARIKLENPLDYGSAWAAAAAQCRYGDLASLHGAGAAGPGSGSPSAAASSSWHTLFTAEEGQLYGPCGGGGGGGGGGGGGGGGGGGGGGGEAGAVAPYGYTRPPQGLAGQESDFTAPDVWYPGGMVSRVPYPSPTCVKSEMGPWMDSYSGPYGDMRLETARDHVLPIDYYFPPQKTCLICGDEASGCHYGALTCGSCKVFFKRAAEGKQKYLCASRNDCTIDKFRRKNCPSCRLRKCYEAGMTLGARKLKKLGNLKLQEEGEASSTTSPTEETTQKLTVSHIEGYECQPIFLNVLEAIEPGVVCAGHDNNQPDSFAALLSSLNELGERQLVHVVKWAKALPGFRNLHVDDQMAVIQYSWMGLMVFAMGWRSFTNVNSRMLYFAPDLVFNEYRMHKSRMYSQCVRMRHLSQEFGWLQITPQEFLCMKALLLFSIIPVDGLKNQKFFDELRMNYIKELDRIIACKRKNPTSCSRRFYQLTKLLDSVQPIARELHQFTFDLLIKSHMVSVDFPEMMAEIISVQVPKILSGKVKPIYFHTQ

Compound | Human Androgen Receptor Binding RBA (%) R1881 = 100 ([1]; […]) | IC50 [2, 4] [nM] | CX Agonistic activity % Stimulation Bulbo [3] | CX Agonistic activity % Stimulation SV [3] | CX Agonistic activity % Stimulation Prostate [3] | Human Androgen Receptor Binding RBA (%) R1881 = 100 ([1]; transfected cells) | IC50 [2, 5] [nM]
Cc1c(N2C(=O)C(C)(C)N(CCCOc3ccc(-c4ccccn4)cc3F)C2=S)ccc(C#N)c1Cl [EM-8715] | 155% | 57.3 | 58% | 11% | 35% | – | –
Cc1c(N2C(=O)C(C)(C)N(CCCOc3ccc(-c4ccncc4)cc3F)C2=S)ccc(C#N)c1Cl [EM-8723] | 408% | 120 | 129% | 56% | 60% | – | –
Cc1c(N2C(=O)C(C)(C)N(CCCOc3ccc4ncccc4c3)C2=S)ccc(C#N)c1Cl [EM-8728] | 125.4% | 53.4 | 98% | 25% | 48% | – | –
Cc1c(N2C(=O)C(C)(C)N(CCCOc3ccc4cccnc4c3)C2=S)ccc(C#N)c1Cl [EM-8730] | – | – | 178% | 73% | 59% | 140.5% | 105
Cc1c(N2C(=O)C(C)(C)N(CCCOc3ccc(-c4ccncc4)cc3C(F)(F)F)C2=S)ccc(C#N)c1C(F)(F)F [EM-8772] | – | – | 104% | 15% | 29% | 2.6% | 137
Cc1c(N2C(=O)C(C)(C)N(CCCOc3ccc(-c4ccncc4)cc3C(F)(F)F)C2=S)ccc(C#N)c1Cl [EM-8773] | 28.1% | 125 | 123% | 30% | 30% | – | –
Cc1c(N2C(=O)N(CCCOc3ccc4cccnc4c3)C(C)(C)C2=O)ccc(C#N)c1Cl [EM-8786] | – | 191 ± 87 | 124 ± 32 (n = 2) % | 10 ± 10 (n = 2) % | 35 ± 10 (n = 2) % | 8.9 ± 0.2 (n = 2) % | –
Cc1c(N2C(=O)C(C)(C)N(CCCOc3ccc(-c4ccncc4)cc3F)C2=S)ccc(C#N)c1C(F)(F)F [EM-8793] | – | 48.2 | 139% | 42% | 29% | 412% | –
Cc1c(N2C(=O)C(C)(C)N(CCCOc3ccc(-c4ccncc4)c(F)c3)C2=S)ccc(C#N)c1Cl [EM-8796] | 698% | 188 | 168% | 127% | 58% | – | –
Cc1c(N2C(=O)C(C)(C)N(CCCOc3ccc(-c4ccncc4)c(F)c3)C2=S)ccc(C#N)c1C(F)(F)F [EM-8797] | – | – | 143% | 58% | 50% | 400% | 108
Cc1c(N2C(=O)C(C)(C)N(CCCOc3ccc(-c4ccncc4)cc3Cl)C2=S)ccc(C#N)c1C(F)(F)F [EM-8798] | – | 130 | 114% | 25% | 49% | 219% | –
Cc1c(N2C(=O)C(C)(C)N(CCCOc3ccc(-c4ccncc4)cc3Cl)C2=S)ccc(C#N)c1Cl [EM-8799] | 877% | 116 | 126% | 55% | 58% | – | –
Cc1c(N2C(=O)C(C)(C)N(CCCOc3ccc(-c4ccncc4)cn3)C2=S)ccc(C#N)c1Cl [EM-8815] | – | 80 | 163% | 75% | 59% | 159% | –
Cc1c(N2C(=O)C(C)(C)N(CCCOc3ccc(-c4ccncc4)c(C(F)(F)F)c3)C2=S)ccc(C#N)c1Cl [EM-8820] | – | 21.8 | 154% | 58% | 33% | 263% | –
Cc1c(N2C(=O)C(C)(C)N(CCCOc3ccc(-c4ccncc4)nc3)C2=S)ccc(C#N)c1Cl [EM-8827] | 113% | 118 ± 14 | 133% | 38% | 41% | – | –
Cc1c(N2C(=O)C(C)(C)N(CCCOc3ccc(Oc4ccc(Cl)nc4)nc3)C2=S)ccc(C#N)c1Cl [EM-8828] | 112% | 96.5 | 161% | 31% | 40% | – | –
Cc1c(N2C(=O)C(C)(C)N(CCCOc3ccc4cnccc4c3)C2=S)ccc(C#N)c1Cl [EM-8869] | – | – | 101% | 18% | 31% | 56% | ~1000
Cc1c(N2C(=O)C(C)(C)N(CCCOc3ccc(-c4ccncc4)c(Cl)c3)C2=S)ccc(C#N)c1Cl [EM-8887] | 1890 ± 1040 (n = 2) % | 133 | 214% | 107% | 55% | – | –
Cc1c(N2C(=O)C(C)(C)N(CCCOc3ccc(-c4cc[n+]([O-])cc4)cc3)C2=S)ccc(C#N)c1Cl [EM-8913] | 114% | > 100 | 160% | 65% | 54% | – | –
Cc1c(N2C(=O)C(C)(C)N(CCCOc3ccc(-c4ccnc(F)c4)cc3)C2=S)ccc(C#N)c1Cl [EM-8922] | 414% | 79 | 134% | 54% | 52% | – | –
Cc1c(N2C(=O)C(C)(C)N(CCCOc3ccc(-c4ccncc4)c(C#N)c3)C2=S)ccc(C#N)c1Cl [EM-8933] | 134% | 110 | 136% | 43% | 46% | – | –
Cc1c(N2C(=O)C(C)(C)N(CCCOc3ccc(-c4ccncc4F)cc3)C2=S)ccc(C#N)c1C(F)(F)F [EM-8974] | 41.9% | 112 | 139% | 24% | 61% | – | –
